According to patent US20240166660A1, “KRAS G12C INHIBITORS” (BeiGene Switzerland GmbH, priority 2021, published 2024):

Molecular target: KRAS (aa 1-169) G12C, C51S, C80L, C118S (Homo sapiens (Human), UniProt P01116, C118S/C51S/C80L/G12C)
Experiment: Biochemical functional assay: SOS1-mediated nucleotide exchange of GDP-loaded KRAS G12C, binding to GST-cRaf RBD, FRET readout
Settings: 3 hrs pre-incubation with compound at 24° C., SOS1, GTPyS
Description: Biochemical Functional Assay
The KRAS (aa 1-169) G12C, C51S, C80L, C118S with a His-tag was expressed, purified and loaded with GDP in house. All protein and substrate solutions were prepared in assay buffer containing 25 mM HEPES pH7.5, 10 mM MgCl2, and 0.01% Triton X-100. Purified GDP-loaded KRAS (aa 1-169) G12C, C51S, C80L, C118S protein was pre-incubated with a serially diluted compound at 24° C. for 3 hrs. Purified SOS1 (aa 564-1049) protein, GTPyS (Sigma) and GST-cRaf RBD (aa 1-149) were then added to each well and incubated at 24° C. for additional 3 hrs. […] Following the incubation, Mab Anti-6HIS-T cryptate (Cisbio) and Mab Anti GST-XL665 (Cisbio) were added and further incubated at 24° C. for 3 hrs. The binding interaction between active GTPyS KRAS G12C and GST-cRaf RBD brings the Tb and XL665 into close proximity enabling an increased FRET signal (Ex337 nm, Em665 nm/620 nm). The inhibition percentage of nucleotide exchange reaction in presence of increasing concentrations of compounds was calculated based on the ratio of fluorescence at 665 nm to that at 620 nm detected on a BMG PHERAstar FSX instrument. The IC50 value of each compound was calculated from fitting the data to the four-parameter logistic model by Dotmatics.

[1] = inhibition of nucleotide exchange

Chain of KRAS (aa 1-169) G12C, C51S, C80L, C118S (P01116 other isoform, or with tags, fused parts or gaps G12C/C51S/C80L/C118S): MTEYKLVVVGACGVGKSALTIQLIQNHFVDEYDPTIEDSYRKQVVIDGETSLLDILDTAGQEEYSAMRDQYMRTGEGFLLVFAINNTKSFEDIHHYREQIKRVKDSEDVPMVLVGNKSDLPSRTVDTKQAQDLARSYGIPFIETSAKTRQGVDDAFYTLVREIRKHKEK

| Compound | IC50 (bound in uM) | IC50 [1] |
| --- | --- | --- |
| C=CC(=O)N1CCN(c2ncnc3cc(-c4ccc(O)c(Cl)c4)c4c(c23)OCCC4)C[C@@H]1CC#N [Compound A27, (S)-2-(1-acryloyl-4-(5-(3-chloro-4-hydroxyphenyl)-3,4-dihydro-2H-pyrano[2,3-f]quinazolin-10-yl)piperazin-2-yl)acetonitrile] | > 10 µM |  |
| C=C(F)C(=O)N1CCN(c2nc(OC3COCC3N(C)C)nc3cc(-c4cccc5cccc(Cl)c45)c4c(c23)OCCC4)C[C@@H]1CC#N (stereo partly drawn) [Compound B69, 2-((2S)-4-(5-(8-chloronaphthalen-1-yl)-8-((4-(dimethylamino)tetrahydrofuran-3-yl)oxy)-3,4-dihydro-2H-pyrano[2,3-f]quinazolin-10-yl)-1-(2-fluoroacryloyl)piperazin-2-yl)acetonitrile] |  | 1.22 µM |
| C=C(F)C(=O)N1CCN(c2nc(N3CC(N(C)C)C3)nc3cc(-c4c(O)cccc4F)c4c(c23)OCCC4)C[C@@H]1CC#N [Compound B8, 2-((2S)-4-(8-(3-(dimethylamino)azetidin-1-yl)-5-(2-fluoro-6-hydroxyphenyl)-3,4-dihydro-2H-pyrano[2,3-f]quinazolin-10-yl)-1-(2-fluoroacryloyl)piperazin-2-yl)acetonitrile] |  | 0.255 µM |
| C=CC(=O)N1CCN(c2nc(N3CC(N(C)C)C3)nc3cc(-c4ccccc4C#N)c4c(c23)OCCC4)CC1 [Compound B19, 2-(10-(4-acryloylpiperazin-1-yl)-8-(3-(dimethylamino)azetidin-1-yl)-3,4-dihydro-2H-pyrano[2,3-f]quinazolin-5-yl)benzonitrile] | > 10 µM |  |
| C=CC(=O)N1CCN(c2ncnc3cc(-c4c(Cl)c(Cl)cc5[nH]ncc45)c4c(c23)OCCC4)C[C@@H]1CC#N [Compound A29, 2-((2S)-1-acryloyl-4-(5-(5,6-dichloro-1H-indazol-4-yl)-3,4-dihydro-2H-pyrano[2,3-f]quinazolin-10-yl)piperazin-2-yl)acetonitrile] |  | 0.0093 µM |
| C=CC(=O)N1CCN(c2nc(OC[C@@H]3CCCN3C)nc3cc(-c4c(F)cccc4Cl)c4ccoc4c23)CC1 [Compound B57, 1-(4-(4-(2-chloro-6-fluorophenyl)-7-(((S)-1-methylpyrrolidin-2-yl)methoxy)furo[2,3-f]quinazolin-9-yl)piperazin-1-yl)prop-2-en-1-one] |  | 1.02 µM |
| C=CC(=O)N1CCN(c2ncnc3cc(-c4c(C)cccc4F)c4c(c23)OCCC4)C[C@@H]1CC#N [Compound A33, 2-((2S)-1-acryloyl-4-(5-(2-fluoro-6-methylphenyl)-3,4-dihydro-2H-pyrano[2,3-f]quinazolin-10-yl)piperazin-2-yl)acetonitrile] |  | 0.233 µM |
| C=C(F)C(=O)N1CCN(c2nc(OC[C@H]3CCCN3C)nc3cc(-c4cccc5cccc(Cl)c45)c4c(c23)OCCC4)C[C@@H]1CC#N (single isomer, unassigned) [Compound B104] |  | 0.00816 µM |
| C=CC(=O)N1CCN(c2nc(N3CC(N(C)C)C3)nc3cc(-c4c(Cl)c(C)cc5[nH]ncc45)c4c(c23)OCCC4)C[C@@H]1CC#N [Compound B4, 2-((2S)-1-acryloyl-4-(5-(5-chloro-6-methyl-1H-indazol-4-yl)-8-(3-(dimethylamino)azetidin-1-yl)-3,4-dihydro-2H-pyrano[2,3-f]quinazolin-10-yl)piperazin-2-yl)acetonitrile] |  | 0.0047 µM |
| C=C(F)C(=O)N1CCN(c2nc(OC[C@@H]3CCCN3C)nc3cc(-c4ccccc4C(F)(F)F)c4ccoc4c23)C[C@@H]1CC#N [Compound B40, 2-((S)-1-(2-fluoroacryloyl)-4-(7-(((S)-1-methylpyrrolidin-2-yl)methoxy)-4-(2-(trifluoromethyl)phenyl)furo[2,3-f]quinazolin-9-yl)piperazin-2-yl)acetonitrile] |  | 0.014 µM |
| C=CC(=O)N1CCN(c2nc(OC[C@@H]3CCCN3C)nc3cc(-c4c(Cl)c(C)cc5[nH]ncc45)c4c(c23)OCC4)CC1 [Compound B28, 1-(4-(4-(5-chloro-6-methyl-1H-indazol-4-yl)-7-(((S)-1-methylpyrrolidin-2-yl)methoxy)-2,3-dihydrofuro[2,3-f]quinazolin-9-yl)piperazin-1-yl)prop-2-en-1-one] |  | 0.113 µM |
| C=C(F)C(=O)N1CCN(c2nc(OC[C@@H]3CCCN3C)nc3cc(-c4cccc5cccc(Cl)c45)c4ccoc4c23)C[C@@H]1CC#N [Compound B41, 2-((S)-4-(4-(8-chloronaphthalen-1-yl)-7-(((S)-1-methylpyrrolidin-2-yl)methoxy)furo[2,3-f]quinazolin-9-yl)-1-(2-fluoroacryloyl)piperazin-2-yl)acetonitrile] |  | 0.0038 µM |
| C=CC(=O)N1CCN(c2ncnc3cc(-c4c(Cl)c(F)cc5[nH]ncc45)c4c(c23)OCCC4)CC1 [Compound A19, 1-(4-(5-(5-chloro-6-fluoro-1H-indazol-4-yl)-3,4-dihydro-2H-pyrano[2,3-f]quinazolin-10-yl)piperazin-1-yl)prop-2-en-1-one] |  | 0.691 µM |
| C=C(F)C(=O)N1CCN(c2nc(OC[C@@H]3CCCN3C)nc3cc(-c4cccc5cccc(F)c45)c4c(c23)OCCC4)C[C@@H]1CC#N [Compound B37, 2-((S)-1-(2-fluoroacryloyl)-4-(5-(8-fluoronaphthalen-1-yl)-8-(((S)-1-methylpyrrolidin-2-yl)methoxy)-3,4-dihydro-2H-pyrano[2,3-f]quinazolin-10-yl)piperazin-2-yl)acetonitrile] |  | 0.008 µM |
| C=CC(=O)N1CCN(c2ncnc3cc(-c4ccc(O)c5ccccc45)c4c(c23)OCCC4)C[C@@H]1CC#N [Compound A21, (S)-2-(1-acryloyl-4-(5-(4-hydroxynaphthalen-1-yl)-3,4-dihydro-2H-pyrano[2,3-f]quinazolin-10-yl)piperazin-2-yl)acetonitrile] |  | 0.005 µM |
| C=C(F)C(=O)N1CCN(c2nc(OC3CN(C)C3)nc3cc(-c4cccc5cccc(Cl)c45)c4c(c23)OCCC4)C[C@@H]1CC#N [Compound B64, (S)-2-(4-(5-(8-chloronaphthalen-1-yl)-8-((1-methylazetidin-3-yl)oxy)-3,4-dihydro-2H-pyrano[2,3-f]quinazolin-10-yl)-1-(2-fluoroacryloyl)piperazin-2-yl)acetonitrile] |  | 0.247 µM |
| C=C(F)C(=O)N1CCN(c2nc(OC(C)CN(C)C)nc3cc(-c4cccc5cccc(Cl)c45)c4c(c23)OCCC4)C[C@@H]1CC#N (stereo partly drawn) [Compound B85, 2-((2S)-4-(5-(8-chloronaphthalen-1-yl)-8-((1-(dimethylamino)propan-2-yl)oxy)-3,4-dihydro-2H-pyrano[2,3-f]quinazolin-10-yl)-1-(2-fluoroacryloyl)piperazin-2-yl)acetonitrile] |  | 0.089 µM |
| C=CC(=O)N1CCN(c2nc(OC[C@@H]3CCCN3C)nc3cc(-c4c(Cl)c(C)cc5[nH]ncc45)c4ccoc4c23)CC1 [Compound B34, 1-(4-(4-(5-chloro-6-methyl-1H-indazol-4-yl)-7-(((S)-1-methylpyrrolidin-2-yl)methoxy)furo[2,3-f]quinazolin-9-yl)piperazin-1-yl)prop-2-en-1-one] |  | 0.065 µM |
| C=CC(=O)N1CCN(c2ncnc3cc(-c4c(Cl)c(C)cc5[nH]ncc45)c4c(c23)OCCC4)C[C@@H]1CC#N [Compound A20, 2-((2S)-1-acryloyl-4-(5-(5-chloro-6-methyl-1H-indazol-4-yl)-3,4-dihydro-2H-pyrano[2,3-f]quinazolin-10-yl)piperazin-2-yl)acetonitrile] |  | 0.0149 µM |
| C=C(F)C(=O)N1CCN(c2nc(OC[C@@H]3CCCN3C)nc3cc(-c4cccc5cccc(C)c45)c4c(c23)OCCC4)C[C@@H]1CC#N [Compound B43, 2-((S)-1-(2-fluoroacryloyl)-4-(5-(8-methylnaphthalen-1-yl)-8-(((S)-1-methylpyrrolidin-2-yl)methoxy)-3,4-dihydro-2H-pyrano[2,3-f]quinazolin-10-yl)piperazin-2-yl)acetonitrile] |  | 0.013 µM |
| C=C(F)C(=O)N1CCN(c2nc(OCC3C[C@@H](OC)CN3C)nc3cc(-c4cccc5cccc(Cl)c45)c4c(c23)OCCC4)C[C@@H]1CC#N (mixture of isomers) [Compound B93, 2-((2S)-4-(5-(8-chloronaphthalen-1-yl)-8-(((4R)-4-methoxy-1-methylpyrrolidin-2-yl)methoxy)-3,4-dihydro-2H-pyrano[2,3-f]quinazolin-10-yl)-1-(2-fluoroacryloyl)piperazin-2-yl)acetonitrile] |  | 0.011 µM |
| C=CC(=O)N1CCN(c2ncnc3cc(-c4cccc5ccccc45)c4c(c23)OCC=C4)C[C@@H]1CC#N [Compound A8, (S)-2-(1-acryloyl-4-(5-(naphthalen-1-yl)-2H-pyrano[2,3-f]quinazolin-10-yl)piperazin-2-yl)acetonitrile] |  | 0.0821 µM |
| C=CC(=O)N1CCN(c2ncnc3cc(-c4c(F)cccc4F)c4c(c23)OCCC4)C[C@@H]1CC#N [Compound A34, (S)-2-(1-acryloyl-4-(5-(2,6-difluorophenyl)-3,4-dihydro-2H-pyrano[2,3-f]quinazolin-10-yl)piperazin-2-yl)acetonitrile] |  | 2.11 µM |
